Results as given in US9315522B2, “Antibacterial compounds” (JANSSEN SCIENCES IRELAND UC, priority 2012, dated 2016).
Values after ≈ are worked out from the molar mass of the structure shown.

Target: T1, S. aureus ATCC 29213 FabI (Staphylococcus aureus, UniProt Q6GI75)
T1 sequence (Q6GI75 1-256): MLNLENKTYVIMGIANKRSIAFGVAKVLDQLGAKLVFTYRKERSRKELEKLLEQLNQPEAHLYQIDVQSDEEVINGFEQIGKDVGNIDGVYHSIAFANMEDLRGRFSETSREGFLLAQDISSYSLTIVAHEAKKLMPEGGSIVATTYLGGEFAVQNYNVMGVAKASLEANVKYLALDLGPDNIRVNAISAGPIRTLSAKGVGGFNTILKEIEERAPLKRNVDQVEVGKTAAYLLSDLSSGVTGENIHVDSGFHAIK
Test: Staphylococcus aureus FabI enzyme inhibition assay
Type: biochemical
Conditions: read-out: FabI (300.235) IC50 (converted)
Procedure: Y.1 FabI Enzyme Inhibition: Staphylococcus aureus FabI Enzyme Inhibition Assay
FabI enzyme inhibition assays were carried out in half-area, 384-well microtitre plates. Compounds were evaluated in 40-μl assay mixtures containing 100 mM NaADA, pH 6.5 (ADA=N-[2-acetamido]-2iminodiacetic acid), 250 μM crotonoyl-CoA, 625 μM NADH and 50 μg/ml S. aureus ATCC 29213 FabI. Inhibitors were typically varied over the range of 50 to 0.39 μM. The reaction mixtures were incubated for 30 minutes at room temperature and the reaction was stopped by adding 200 mM Tris buffer (pH 9.0) to create a pH-shift. The consumption of NADH was monitored by measuring the change in absorbance at […]. By comparing sample readings to those of negative (absence of compound) and positive (absence of enzyme) controls, the percent inhibition of enzymatic activity of the compounds was determined A best-fit curve is fitted by a minimum of squares method. From this an IC50-value (expressed in μg/ml), resulting in 50% inhibition of enzymatic activity, was obtained.

SMILES | IC50 [nM]
CC(C)C1Oc2cc(/C=C/C(=O)N3CC4C=C(c5nccs5)CC4C3)cnc2NC1=O (stereo not shown) [compound 64] | 825
CC(C)C1Oc2cc(/C=C/C(=O)N3CC4C=C(c5ccncc5)CC4C3)cnc2NC1=O (stereo not shown) [compound 65] | 859
O=C1CNC(=O)c2cc(/C=C/C(=O)N3CC4C=C(c5ccccc5)CC4C3)cnc2N1 (stereo not shown) [compound 66] | 651
O=C1Nc2ncc(/C=C/C(=O)N3CC4C=C(c5ccsc5)CC4C3)cc2CN2CCOCC12 (stereo not shown) [compound 70] | 1450
CC(=O)N1CCN2Cc3cc(/C=C/C(=O)N4CC5C=C(c6cccs6)CC5C4)cnc3NC(=O)C2C1 (stereo not shown) [compound 75] | 1290
O=C1Nc2ncc(/C=C/C(=O)N3CC4C=C(c5ccccc5)CC4C3)cc2C(=O)N2CCOCC12 (stereo not shown) [compound 76] | 1230
O=C1Nc2ncc(/C=C/C(=O)N3CC4C=C(c5ccccc5)CC4C3)cc2CN2CCSCC12 (stereo not shown) [compound 77] | 1180
O=C1Nc2ncc(/C=C/C(=O)N3CC4C=C(c5ccccc5)CC4C3)cc2CN2CCOCC12 (stereo not shown) [compound 78] | 1070

Test system: Staphylococcus aureus ATCC 29213
Test: Antibacterial susceptibility testing, IC90 determination (STA)
Type: cell-based
Conditions: Staphylococcus aureus ATCC 29213, broth microdilution, resazurin
Procedure: (§1) The following bacteria were used: Staphylococcus aureus ATCC 29213, methicillin-resistant Staphylococcus aureus (MRSA) ATCC 700788 and Escherichia coli ATCC 35218. The bacteria used in this study were grown overnight in flasks containing 100 ml Mueller-Hinton broth (Difco cat. nr. 0757-17) in sterile de-ionized water, with shaking, at 37° C. Stocks were store at −70° C. until use.
(§2) Bacteria were incubated on a tryptic soy agar plate containing 5% sheep blood (Becton Dickinson cat. nr. 254053) for 18-24 hours at 35° C. in aerobic conditions (first passage). For the second passage, fresh Mueller-Hinton broth is inoculated with 5-10 colonies and grown overnight at 35° C. until turbidity (reaching log-phase) in aerobic conditions is reached. The bacterial suspension is then adjusted to 0.5 McFarland density and further diluted 1:100 in Mueller Hinton broth medium. This is used as inoculum.
The result(s) are depicted the table below (for STA ATCC 29213).
(§3) MIC assays were performed by the broth microdilution method in a 96-well format (flat-bottom microtitre plates) with a final volume of 0.1 ml Mueller Hinton broth containing two-fold serial dilutions of compounds and inoculated with 5×10^5 CFU/ml of bacteria (standard inoculum size according to CLSI guidelines). Inhibitors are typically varied over the range of 63 to 0.49 μM. The final DMSO concentration in the assay was 1.25% (maximum tolerable DMSO concentration=6%). In the assays where the effect of human serum on the activity of the compounds against S. aureus was tested, human serum was added at a final concentration of 10%. The plates were incubated at 35° C. for 16-20 hours. At the end of incubation the bacterial growth was quantified fluorometrically. For this, resazurin was added to all wells and the plates were re-incubated. The incubation time is dependent on the type of bacteria. A change in color from blue to pink indicated the growth of bacteria. The fluorescence was read in computer-controlled fluorometer (Fluoroskan Ascent FL, Labsystems) at an excitation wavelength 540 nm and an emission wavelength of 590 nm. The % growth inhibition achieved by the compounds was calculated according to standard methods. The IC90 (expressed in μg/ml) was defined as the 90% inhibitory concentration for bacterial growth. A panel of reference compounds were simultaneously tested for QC approval.

SMILES | STA (361.159) IC90 [µg/mL]
O=C1Nc2ncc(/C=C/C(=O)N3CC4C=C(c5ccccc5)CC4C3)cc2CN2CCOCC12 (stereo not shown) [compound 78] | 0.31

Same assay, conditions: Staphylococcus aureus, ATCC29213, Staphylococcus aureus ATCC 29213, broth microdilution, resazurin; read-out: STA (361.159) IC90

SMILES | IC90 [µg/mL]
CC(C)C1Oc2cc(/C=C/C(=O)N3CC4C=C(c5nccs5)CC4C3)cnc2NC1=O (stereo not shown) [compound 64] | < 0.21
CC(C)C1Oc2cc(/C=C/C(=O)N3CC4C=C(c5ccncc5)CC4C3)cnc2NC1=O (stereo not shown) [compound 65] | < 0.21
O=C1CNC(=O)c2cc(/C=C/C(=O)N3CC4C=C(c5ccccc5)CC4C3)cnc2N1 (stereo not shown) [compound 66] | 0.76 (≈ 1.83 µM)
O=C1Nc2ncc(/C=C/C(=O)N3CC4C=C(c5ccsc5)CC4C3)cc2CN2CCOCC12 (stereo not shown) [compound 70] | 0.17 (≈ 0.368 µM)
CC(=O)N1CCN2Cc3cc(/C=C/C(=O)N4CC5C=C(c6cccs6)CC5C4)cnc3NC(=O)C2C1 (stereo not shown) [compound 75] | < 0.25
O=C1Nc2ncc(/C=C/C(=O)N3CC4C=C(c5ccccc5)CC4C3)cc2C(=O)N2CCOCC12 (stereo not shown) [compound 76] | 0.25 (≈ 0.531 µM)
O=C1Nc2ncc(/C=C/C(=O)N3CC4C=C(c5ccccc5)CC4C3)cc2CN2CCSCC12 (stereo not shown) [compound 77] | 0.26 (≈ 0.55 µM)

Test system: S. aureus
Test: Antibacterial susceptibility testing, IC90 determination with 10% human serum (STA + 10% HS)
Type: cell-based, Staphylococcus aureus
Conditions: Staphylococcus aureus, human serum at final concentration of 10%, read-out: STA + 10% HS (361.169) IC90
Procedure: as §1, §2, §3
The results are depicted in the table(s) below (STA+10% HS).

SMILES | IC90 [µg/mL]
CC(C)C1Oc2cc(/C=C/C(=O)N3CC4C=C(c5nccs5)CC4C3)cnc2NC1=O (stereo not shown) [compound 64] | < 0.21
CC(C)C1Oc2cc(/C=C/C(=O)N3CC4C=C(c5ccncc5)CC4C3)cnc2NC1=O (stereo not shown) [compound 65] | < 0.21
O=C1CNC(=O)c2cc(/C=C/C(=O)N3CC4C=C(c5ccccc5)CC4C3)cnc2N1 (stereo not shown) [compound 66] | 0.79
O=C1Nc2ncc(/C=C/C(=O)N3CC4C=C(c5ccsc5)CC4C3)cc2CN2CCOCC12 (stereo not shown) [compound 70] | 0.2
CC(=O)N1CCN2Cc3cc(/C=C/C(=O)N4CC5C=C(c6cccs6)CC5C4)cnc3NC(=O)C2C1 (stereo not shown) [compound 75] | < 0.25
O=C1Nc2ncc(/C=C/C(=O)N3CC4C=C(c5ccccc5)CC4C3)cc2C(=O)N2CCOCC12 (stereo not shown) [compound 76] | 0.41
O=C1Nc2ncc(/C=C/C(=O)N3CC4C=C(c5ccccc5)CC4C3)cc2CN2CCSCC12 (stereo not shown) [compound 77] | 0.59
O=C1Nc2ncc(/C=C/C(=O)N3CC4C=C(c5ccccc5)CC4C3)cc2CN2CCOCC12 (stereo not shown) [compound 78] | < 0.22

Test system: not listed separately
Test: Cytotoxicity MTT assay (HELAM)
Type: cell-based, Human
Conditions: human, HelaM cells, read-out: HELAM (222.125) CC50
Procedure: Cytotoxicity of the compounds was evaluated using the MTT assay. Human HelaM cells grown in 96-well plates were exposed to serial dilutions of the tested compounds (final volume of 0.2 ml) and incubated for 72 hours at 37° C. and 5% CO2. Inhibitors are typically varied over the range of 25 to 0.8 μM. The final DMSO concentration in the assay is 0.5%. MTT (3-(4,5-Dimethylthiazol-2-yl)-2,5-diphenyltetrazolium bromide, a tetrazole) was added and reduced to purple formazan only in living cells. Solubilization of the formazan crystals was achieved by adding 100 μl 2-propanol. Cell viability was determined by measuring the absorbance of the reduced formazan, giving a purple color, at 540 nm and 690 nm. The absorbance measured at 690 nm was automatically subtracted from the absorbance at 540 nm, to eliminate the effects of non-specific absorption. The percent cytotoxicity achieved by the compounds was calculated according to standard methods. Cytotoxicity is reported as CC50, the concentration that causes a 50% reduction in cell viability.
The results are depicted in the table(s) below (HELAM).

SMILES | CC50 at 72 h [µg/mL]
CC(C)C1Oc2cc(/C=C/C(=O)N3CC4C=C(c5nccs5)CC4C3)cnc2NC1=O (stereo not shown) [compound 64] | > 11
CC(C)C1Oc2cc(/C=C/C(=O)N3CC4C=C(c5ccncc5)CC4C3)cnc2NC1=O (stereo not shown) [compound 65] | > 10.8
O=C1CNC(=O)c2cc(/C=C/C(=O)N3CC4C=C(c5ccccc5)CC4C3)cnc2N1 (stereo not shown) [compound 66] | > 10.4
O=C1Nc2ncc(/C=C/C(=O)N3CC4C=C(c5ccsc5)CC4C3)cc2CN2CCOCC12 (stereo not shown) [compound 70] | > 11.6
CC(=O)N1CCN2Cc3cc(/C=C/C(=O)N4CC5C=C(c6cccs6)CC5C4)cnc3NC(=O)C2C1 (stereo not shown) [compound 75] | > 12.7
O=C1Nc2ncc(/C=C/C(=O)N3CC4C=C(c5ccccc5)CC4C3)cc2C(=O)N2CCOCC12 (stereo not shown) [compound 76] | > 11.8
O=C1Nc2ncc(/C=C/C(=O)N3CC4C=C(c5ccccc5)CC4C3)cc2CN2CCSCC12 (stereo not shown) [compound 77] | 1.2 (≈ 2.54 µM)
O=C1Nc2ncc(/C=C/C(=O)N3CC4C=C(c5ccccc5)CC4C3)cc2CN2CCOCC12 (stereo not shown) [compound 78] | > 11.5

Test system: not given
Test: not given
Conditions: not given

SMILES | melting point [°C]
CC(C)C1Oc2cc(/C=C/C(=O)N3CC4C=C(c5nccs5)CC4C3)cnc2NC1=O (stereo not shown) [compound 64] | 223.55
CC(C)C1Oc2cc(/C=C/C(=O)N3CC4C=C(c5ccncc5)CC4C3)cnc2NC1=O (stereo not shown) [compound 65] | 113.11
O=C1CNC(=O)c2cc(/C=C/C(=O)N3CC4C=C(c5ccccc5)CC4C3)cnc2N1 (stereo not shown) [compound 66] | 226
O=C1Nc2ncc(/C=C/C(=O)N3CC4C=C(c5ccsc5)CC4C3)cc2CN2CCOCC12 (stereo not shown) [compound 70] | > 250
CC(=O)N1CCN2Cc3cc(/C=C/C(=O)N4CC5C=C(c6cccs6)CC5C4)cnc3NC(=O)C2C1 (stereo not shown) [compound 75] | 215 to 230
O=C1Nc2ncc(/C=C/C(=O)N3CC4C=C(c5ccccc5)CC4C3)cc2C(=O)N2CCOCC12 (stereo not shown) [compound 76] | 278.12
O=C1Nc2ncc(/C=C/C(=O)N3CC4C=C(c5ccccc5)CC4C3)cc2CN2CCSCC12 (stereo not shown) [compound 77] | 214
O=C1Nc2ncc(/C=C/C(=O)N3CC4C=C(c5ccccc5)CC4C3)cc2CN2CCOCC12 (stereo not shown) [compound 78] | 242
